Each structure is given as a SMILES string.

One assay concerns the target endogenous MLKL in MDF (Mus musculus (Mouse), UniProt Q9D2Y4). Put plainly: Degradation assay: endogenous MLKL in MDF (western blot). Conditions: MDF cells, 24 h incubation with compound, MLKL adjusted for loading with GAPDH, normalized to DMSO only control, read-out: Degradation of endogenous MLKL in MDF (DC50 cell-based assay). An outline of the steps: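 MDF (seeded the day before) or U937 cells were treated 24 h at 37 °C, 10% CO2 with compound at 10, 2, 0.4, 0.08 and 0.016 μM final. Endogenous MLKL was quantified by western blot (anti-MLKL 3H1), normalized to GAPDH. Percent degradation was taken relative to DMSO control.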
(In general: Immunoblotting shows a protein as a band on a membrane.)

For the next assay, the target named is human MLKL (full length) (Homo sapiens (Human), UniProt Q8NB16). As to the kind of experiment: KINOMEscan binding assay, human MLKL (full length). Conditions: hMLKL, Table 25; read-out: MLKL (KD). An outline of the steps: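 KINOMEscan competition binding using kinase-tagged T7 phage or HEK-293-produced DNA-tagged protein captured on ligand beads, with eluted protein quantified by qPCR. Compounds were run as an 11-point 3-fold series, top 30,000 nM, in 1% DMSO. Kd was fitted with the Hill equation, slope fixed at −1.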
human MLKL (full length), sequence (Q8NB16 whole entry): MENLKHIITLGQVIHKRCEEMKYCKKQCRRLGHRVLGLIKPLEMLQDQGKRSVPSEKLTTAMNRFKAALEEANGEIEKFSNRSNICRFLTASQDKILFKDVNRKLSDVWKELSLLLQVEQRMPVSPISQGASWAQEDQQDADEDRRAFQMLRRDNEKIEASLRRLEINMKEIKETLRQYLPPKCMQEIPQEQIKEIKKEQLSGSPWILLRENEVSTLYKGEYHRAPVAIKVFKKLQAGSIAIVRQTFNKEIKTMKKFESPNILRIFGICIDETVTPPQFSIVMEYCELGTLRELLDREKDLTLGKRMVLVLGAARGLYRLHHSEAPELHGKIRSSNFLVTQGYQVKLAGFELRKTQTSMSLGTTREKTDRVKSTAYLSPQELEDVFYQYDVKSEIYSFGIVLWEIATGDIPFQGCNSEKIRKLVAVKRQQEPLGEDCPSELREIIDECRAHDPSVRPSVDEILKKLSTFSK

The subject of assay [1] is Immortalised Mouse Dermal Fibroblasts (MDFs). Put plainly: Cellular assay: inhibition of TSI induced necroptosis, CellTitre-Glo viability. The conditions noted are these: Mus musculus, Fibroblast; MDF, 3 hours TSI cocktail, Table 27; read-out: Inhibition of TSI-induced necroptosis (IC50 cell-based assay) in MDF. In a few lines: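 Immortalised mouse dermal fibroblasts (2200 cells/well) pretreated 30 min with compound, 10-point 1:3 series from 36 μM, 0.3% DMSO. Then 3 h at 37° C. with TNF (100 ng/ml), Smac mimetic (500 nM) and IDN-6556 (10 μM). CellTiter-Glo luminescence normalised to DMSO (100%) and DMSO+TSI (0%); IC50 from 4-parameter logistic fit.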

In the next assay the target is endogenous MLKL in U937 (Homo sapiens (Human), UniProt Q8NB16). Put plainly: Degradation assay: endogenous MLKL in U937 (western blot). The conditions noted are these: U937, 24 h incubation, read-out: Degradation of endogenous MLKL in U937 (DC50 cell-based assay). How it is done: Degradation Assay: Screening Compounds Procedure to Evaluate the Activity of Compounds in Degrading Endogenous MLKL in Human and Mouse Cell
endogenous MLKL in U937, sequence (Q8NB16 whole entry): as above
The mouse dermal fibroblast (MDF) cell line was seeded the day before the experiment in a 24-well plate at a cell density of […] per well in a volume of 0.5 mL per well and left to attach overnight. The human monocyte cell line (U937) was seeded on the day of the experiment in a 24-well plate at a cell density of […] per well in a volume of 0.5 mL per well.
The compound was diluted in DMSO with a starting concentration of 10 mM and titrated stepwise with a dilution of 1:5. 0.5 μL of the compound dilution was added to the appropriate well to achieve a final concentration of 10; 2; 0.4; 0.08 and 0.016 μM. A DMSO only well was included as control.
The cells were incubated for 24 h in the presence of the compound at 37° C. and 10% CO2.
After the 24 h incubation period, the medium was removed and cells washed with 0.5 mL PBS. The cells were then lysed directly in 60 μL of 1×SDS gel loading buffer.
The cell lysate was heat-denatured at […] for 10 min. 10 μL of lysate per well were run on 18-well 4-15% Criterion TGX stain free gels (BIO-RAD). The proteins were then transferred onto nitrocellulose membrane with a wet transfer protocol in the Criterion Blotter (BIO-RAD).
Membranes were blocked with 5% skim milk in TBST. Primary antibody against MLKL (clone 3H1, MABC604 Merck) was used at 1:2000 dilution in TBST with 1% BSA and left shaking over night at 4° C. After washes with TBST, the membranes were incubated with goat anti-rat IgG HRP-conjugated antibody (Southern Biotech) in 1% skim milk TBST at 1:10000 dilution for 1 h at room temperature. After TBST washes the bands were imaged on the ChemiDoc MP Imaging System (BIO-RAD) with Immobilion Western Chemiluminescent HRP Substrate Forte (Millipore). The loading control GAPDH was probed for with rabbit anti-GAPDH (CST 14C10) at 1:2000 dilution in 1% BSA TBST over night at 4° C. TBST washes were followed by incubation with goat anti-rabbit IgG HRP-conjugated antibody (Southern Biotech) in 1% skim milk TBST at 1:10000 dilution for 1 h at room temperature followed by TBST washes. The signal was detected as described above.
The band intensity was measured in the ImageLab Software (BIO-RAD) and the MLKL values adjusted for loading with GAPDH. The percentage of degradation was calculated by normalizing the compound treated values to the DMSO only control.

endogenous MLKL in MDF, sequence (Q9D2Y4 whole entry): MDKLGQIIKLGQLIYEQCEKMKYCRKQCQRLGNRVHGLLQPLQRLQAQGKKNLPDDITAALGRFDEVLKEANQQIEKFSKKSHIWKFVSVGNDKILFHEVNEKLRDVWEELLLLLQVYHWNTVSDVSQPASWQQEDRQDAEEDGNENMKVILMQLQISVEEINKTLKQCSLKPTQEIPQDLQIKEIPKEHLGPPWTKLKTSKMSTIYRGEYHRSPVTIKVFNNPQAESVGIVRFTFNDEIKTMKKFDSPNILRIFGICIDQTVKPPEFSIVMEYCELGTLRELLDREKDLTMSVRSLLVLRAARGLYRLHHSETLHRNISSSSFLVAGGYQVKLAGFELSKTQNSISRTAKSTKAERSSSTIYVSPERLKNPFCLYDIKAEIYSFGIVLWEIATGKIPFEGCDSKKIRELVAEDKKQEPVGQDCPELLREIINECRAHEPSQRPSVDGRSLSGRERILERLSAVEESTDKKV

By DC50 is commonly meant the concentration giving 50% degradation. As a reminder, the Kd is the equilibrium constant for the complex coming apart. Usually IC50 stands for the point on the concentration scale where inhibition reaches its midpoint. As for `C[C@H](Oc1cc(-c2nn(C)c3c(-c4cnn(C5CCN(CC6CCN(c7cccc8c7C(=O)N(C7CCC(=O)NC7=O)C8=O)CC6)CC5)c4)cnc(N)c23)ccc1NS(=O)(=O)C(F)F)c1ccc(F)cc1` (stereo partly drawn) [Compound 1079, N-[4-(4-amino-7-{1-[1-({1-[2-(2,6-dioxopiperidin-3-yl)-1,3-dioxo-2,3-dihydro-1H-isoindol-4-yl]piperidin-4-yl}methyl)piperidin-4-yl]-1H-pyrazol-4-yl}-1-methyl-1H-pyrazolo[4,3-c]pyridin-3-yl)-2-[(1S)-1-(4-fluorophenyl)ethoxy]phenyl]-1,1-difluoromethane-sulfonamide], the DC50 at endogenous MLKL in MDF and on endogenous MLKL in U937 was less than 1000 nM throughout. Further, the Kd on human MLKL (full length) was less than 10 nM. For the same compound, the IC50 in assay [1] is less than 1000 nM.
For `C[C@H](Oc1cc(-c2nn(C)c3c(-c4cnn(C5CCN(CC6CCN(c7cccc8c7C(=O)N(C7CCC(=O)NC7=O)C8=O)C6)CC5)c4)cnc(N)c23)ccc1NS(=O)(=O)C(F)F)c1ccc(F)cc1` (stereo partly drawn) [Compound 1083, N-[4-(4-amino-7-{1-[1-({1-[2-(2,6-dioxopiperidin-3-yl)-1,3-dioxo-2,3-dihydro-1H-isoindol-4-yl]pyrrolidin-3-yl}methyl)piperidin-4-yl]-1H-pyrazol-4-yl}-1-methyl-1H-pyrazolo[4,3-c]pyridin-3-yl}-2-[(1S)-1-(4-fluorophenyl)ethoxy]phenyl]-1,1-difluoromethanesulfonamide], the DC50 at endogenous MLKL in MDF and on endogenous MLKL in U937 was less than 1000 nM in each case. On human MLKL (full length), the Kd is less than 10 nM. Further, the IC50 in assay [1] was less than 1000 nM.
As for `Cn1nc(-c2ccc(NS(=O)(=O)C(F)F)c(F)c2)c2c(N)ncc(-c3cnn(C4CCN(Cc5cccc(CNc6cccc7c6C(=O)N(C6CCC(=O)NC6=O)C7=O)c5)CC4)c3)c21` (stereo not drawn) [Compound 1122, N-(4-{4-amino-7-[1-(1-{[3-({[2-(2,6-dioxopiperidin-3-yl)-1,3-dioxo-2,3-dihydro-1H-isoindol-4-yl]amino}methyl)phenyl]methyl}piperidin-4-yl)-1H-pyrazol-4-yl]-1-methyl-1H-pyrazolo[4,3-c]pyridin-3-yl}-2-fluorophenyl)-1,1-difluoromethanesulfonamide], the values for the DC50 on endogenous MLKL in MDF and at endogenous MLKL in U937 were 1000 to 10000 nM and less than 1000 nM, respectively. Further, the Kd on human MLKL (full length) was less than 10 nM. Further, the IC50 in assay [1] was 1000 to 10000 nM.
As for `C[C@H](Oc1cc(-c2nn(C)c3c(-c4cnn(C5CCC(C(=O)N6CCC(c7cccc8c7C(=O)N(C7CCC(=O)NC7=O)C8=O)CC6)CC5)c4)cnc(N)c23)ccc1NS(=O)(=O)C(F)F)c1ccc(F)cc1` (stereo partly drawn) [Compound 1127], the DC50 on endogenous MLKL in MDF and on endogenous MLKL in U937 was less than 1000 nM each time. Also, the Kd on human MLKL (full length) was in the range of 10 to 1000 nM. Moreover, in assay [1], the IC50 was less than 1000 nM.
As to `C[C@H](Oc1cc(-c2nn(C)c3c(-c4cnn(C5CCN(Cc6ccc(CNc7cccc8c7C(=O)N(C7CCC(=O)NC7=O)C8=O)cc6)CC5)c4)cnc(N)c23)ccc1NS(=O)(=O)C(F)F)c1ccc(F)cc1` (stereo partly drawn) [Compound 1115, N-(4-{4-amino-7-[1-(1-{[4-({[2-(2,6-dioxopiperidin-3-yl)-1,3-dioxo-2,3-dihydro-1H-isoindol-4-yl]amino}methyl)phenyl]methyl}piperidin-4-yl)-1H-pyrazol-4-yl]-1-methyl-1H-pyrazolo[4,3-c]pyridin-3-yl}-2-[(1S)-1-(4-fluorophenyl)ethoxy]phenyl)-1,1-difluoromethanesulfonamide], the DC50 at endogenous MLKL in MDF and at endogenous MLKL in U937 was less than 1000 nM in each case. The Kd at human MLKL (full length) fell in the range of 10 to 1000 nM. Further, the IC50 in assay [1] is less than 1000 nM.
Regarding `C[C@H](Oc1cc(-c2nn(C)c3c(-c4cnn(C5CCN(C(=O)C6CCN(c7cccc8c7C(=O)N(C7CCC(=O)NC7=O)C8=O)CC6)CC5)c4)cnc(N)c23)ccc1NS(=O)(=O)C(F)F)c1ccc(F)cc1` (stereo partly drawn) [Compound 1044, N-(4-{4-amino-7-[1-(1-{1-[2-(2,6-dioxopiperidin-3-yl)-1,3-dioxo-2,3-dihydro-1H-isoindol-4-yl]piperidine-4-carbonyl}piperidin-4-yl)-1H-pyrazol-4-yl]-1-methyl-1H-pyrazolo [4,3-c]pyridin-3-yl}-2-[(1S)-1-(4-fluorophenyl)ethoxy]phenyl)-1,1-difluoromethanesulfonamide], the DC50 on endogenous MLKL in MDF and at endogenous MLKL in U937 was less than 1000 nM in each case. Also, the Kd at human MLKL (full length) is less than 10 nM. For the same compound, the IC50 in assay [1] was less than 1000 nM.
As to `CCS(=O)(=O)Nc1ccc(-c2nn(C)c3c(-c4cnn(C5CCN(C(=O)CCC6CCN(c7cccc8c7C(=O)N(C7CCC(=O)NC7=O)C8=O)CC6)CC5)c4)cnc(N)c23)cc1F` (stereo not drawn) [Compound 1088, N-[4-(4-amino-7-{1-[1-(3-{1-[2-(2,6-dioxopiperidin-3-yl)-1,3-dioxo-2,3-dihydro-1H-isoindol-4-yl]piperidin-4-yl}propanoyl)piperidin-4-yl]-1H-pyrazol-4-yl}-1-methyl-1H-pyrazolo[4,3-c]pyridin-3-yl}-2-fluorophenyl]ethane-1-sulfonamide], the half-maximal degradation concentration (DC50) on endogenous MLKL in MDF and at endogenous MLKL in U937 was less than 1000 nM throughout. In addition, the Kd on human MLKL (full length) is less than 10 nM. Moreover, in assay [1], the IC50 is less than 1000 nM.
Take `C[C@H](Oc1cc(-c2nn(C)c3c(-c4cnn(C5CCN(C(=O)[C@H]6CC[C@H](Nc7cccc8c7C(=O)N(C7CCC(=O)NC7=O)C8=O)CC6)CC5)c4)cnc(N)c23)ccc1NS(=O)(=O)C(F)F)c1ccc(F)cc1` (stereo partly drawn) [Compound 1058, N-{4-[4-amino-1-methyl-7-(1-{1-[(trans)-4-{[2-(2,6-dioxopiperidin-3-yl)-1,3-dioxo-2,3-dihydro-1H-isoindol-4-yl]amino}cyclohexane-carbonyl]piperidin-4-yl}-1H-pyrazol-4-yl)-1H-pyrazolo[4,3-c]pyridin-3-yl]-2-[(1S)-1-(4-fluorophenyl)ethoxy]phenyl}-1,1-difluoromethanesulfonamide]: the 50% degradation concentration (DC50) at endogenous MLKL in MDF is less than 1000 nM; at endogenous MLKL in U937 it was 1000 to 10000 nM. Further, the Kd at human MLKL (full length) was in the range of 10 to 1000 nM. In assay [1], the IC50 was less than 1000 nM.
With `C[C@H](Oc1cc(-c2nn(C)c3c(-c4cnn(C5CCN(CCCC6CCN(c7cccc8c7C(=O)N(C7CCC(=O)NC7=O)C8=O)CC6)CC5)c4)cnc(N)c23)ccc1NS(=O)(=O)C(F)F)c1ccc(F)cc1` (stereo partly drawn) [Compound 1078, N-[4-(4-amino-7-{1-[1-(3-{1-[2-(2,6-dioxopiperidin-3-yl)-1,3-dioxo-2,3-dihydro-1H-isoindol-4-yl]piperidin-4-yl}propyl)piperidin-4-yl]-1H-pyrazol-4-yl}-1-methyl-1H-pyrazolo[4,3-c]pyridin-3-yl)-2-[(1S)-1-(4-fluorophenyl)ethoxy]phenyl]-1,1-difluoromethane-sulfonamide], the DC50 on endogenous MLKL in MDF and at endogenous MLKL in U937 was 1000 to 10000 nM in each case. Moreover, the Kd at human MLKL (full length) was less than 10 nM. Further, in assay [1], the IC50 is less than 1000 nM.
